Data as given in article PMC11071266, “The putative proton-coupled organic cation antiporter is involved in uptake of triptans into human brain capillary endothelial cells” (Fluids and Barriers of the CNS, 2024).
Like-named read-outs stand apart in the source and are kept apart here.

Assays:
H^+/OC antiporter [1] = experiment: Cellular uptake into hCMEC/D3 cells after intra- and extracellular pH manipulation; type: cell-based, human
H^+/OC antiporter [2] = experiment: Inhibition of [^3H]-pyrilamine uptake into hCMEC/D3 cells; type: cell-based, human; conditions: [^3H]-pyrilamine 1 µCi/mL, 48 nM, read-out: Apparent IC50 on [^3H]-pyrilamine uptake
Description: The immortalized human cerebral microvascular endothelial cell line (hCMEC/D3) was maintained in T75-flasks coated with collagen type I from calf skin (C9791, 18.7 μg/mL) and cultured in EBM®-2 medium (Lonza, Basel, Schweiz) supplemented with 5% (v/v) fetal bovine serum (FBS, 10270, Life Technologies, CA, USA or SH3008803, ThermoFisher Scientific, MA, USA), 100 U/mL penicillin and 100 μg/ml streptomycin, 1 ng/mL human basic fibroblast growth factor (bFGF), 1.4 μM hydrocortisone, 1% (v/v) chemically defined lipid concentrate (ThermoFisher Scientific, MA, USA), 10 mM N-2-hydroxyethylpiperazine-N-2-ethane sulfonic acid (HEPES) and 5 μg/mL ascorbic acid (5% CO2, 37 °C). […] For experiments, cells were seeded into 24-well plates (6.7·10^4 cells/cm^2) and cultured for four continuous days. The cells were used for experiments between passage 3–31.
The cells were equilibrated in hHBSS with or without inhibitor for 15 min (37 °C, 90 rpm). The compound of interest was spiked into the hHBSS followed by incubation for a designated time. The timeframe of the initial uptake rate was validated into hCMEC/D3 cells (Fig. 1 and Additional file 1). The experiment was terminated by washing three times with ice-cold HBSS supplemented with 0.0375% (v/v) sodium bicarbonate.
The inhibitory constant at 50% inhibition (IC50) was determined by fitting the uptake flux (Jss) as function of the logarithmic inhibitor concentration to Eq. 2.2 Jss=Jmin+(Jmax-Jmin)/1+10^logIC50-InH where [I] is the inhibitor concentration, nH is the Hill coefficient.
The hCMEC/D3 cells were used for [^3H]-pyrilamine inhibition studies between passage 3–6 (pyrilamine, oxycodone), 16–18 (almotriptan), 7–13 (eletriptan), 25–27 (frovatriptan), 3–8 (naratriptan), 16–18 (rizatriptan), 12–14 (sumatriptan), and 14–16 (zolmitriptan).
The cells were permeabilized using 0.1% (v/v) Triton X-100 in ultrapure water (ELGA, Buckinghamshire, England) for 10 min at room temperature. Thereafter, the cells were scraped off the bottom of the wells, transferred to scintillation vials, and mixed with 2 mL of Ultima Gold 241 TM (Perkin Elmer, MA, USA). The samples were analyzed using a Tri-Carb 2910 TR Liquid Scintillation Analyzer (Perkin Elmer, MA, USA).

in vitro = conditions: C57, mouse, plasma
Description: C57 mice were used to prepare blank plasma and brain matrices throughout all binding studies.

- IC50 (H^+/OC antiporter [2]; listed as eletriptan): ~15 µM
- IC50 (H^+/OC antiporter [2]): 15 ± 4 µM
- fraction unbound at 1 µM (in vitro; fu,brain): 0.083
- fraction unbound at 1 µM (in vitro; fu,plasma): 0.4
Structure (SMILES): CN1CCC[C@@H]1Cc1c[nH]c2ccc(CCS(=O)(=O)c3ccccc3)cc12 [Eletriptan]
- Cellular uptake after intracellular alkalization (H^+/OC antiporter [1]; acute exposure to 30 mM NH4Cl vs control pH 7.4): decreased
- Cellular uptake at extracellular acidification (H^+/OC antiporter [1]; extracellular pH 6.8 vs pH 7.4): did not affect
- Cellular uptake at extracellular alkalization (H^+/OC antiporter [1]; extracellular pH 8.2 vs pH 7.4): slight decrease
- Proton-gradient dependence of uptake (H^+/OC antiporter [1]; hCMEC/D3 cells): yes
- Cellular uptake after intracellular acidification (H^+/OC antiporter [1]; preexposure to 30 mM NH4Cl followed by media change vs control): statistically significant increase
